Assay results: PubChem BioAssay AID2060503 (Molecular Pharmacology Branch, DTP, NCI, 2025)

What follows are molecules tested on 817829-284-R-J1-PDC complex spheroids, viability (assay: Anticancer human tumor 817829-284-R-J1-PDC patient-derived colon adenocarcinoma cell line growth inhibition [GQUAD]). Conditions: second compound 0.0316 µM; first compound 3.16 µM; stronger effect = lower value.
Method in brief: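 Tumor cells were grown as complex spheroids with HUVEC endothelial cells and mesenchymal stem cells as stroma. G-quadruplex stabilizers were combined with targeted agents over half-log dilutions from near the clinical Cmax, or from 10 microM.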
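Note: spheroids exposed to agents for 7 days before readout; percent viability relative to DMSO vehicle control taken as 100%.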

SMILES | viability, T/C [%]
C=CCn1c(=O)c2cnc(Nc3ccc(N4CCN(C)CC4)cc3)nc2n1-c1cccc(C(C)(C)O)n1 + Cc1[nH]c2ccc(F)cc2c1-c1nc2c3cccnc3c3ncccc3c2[nH]1 | 6.61
CC(C)(O)C1CCC(Nc2ccc3ncc(-c4cccc(C(F)(F)F)c4)n3n2)CC1 (configuration not stated) + Cc1[nH]c2ccc(F)cc2c1-c1nc2c3cccnc3c3ncccc3c2[nH]1 | 32.5
Nc1ccn(C2OC(CO)C(O)C2(F)F)c(=O)n1 (configuration not stated) + Cc1[nH]c2ccc(F)cc2c1-c1nc2c3cccnc3c3ncccc3c2[nH]1 | 5.53
O=C(NO)c1cnc(N2CCN(S(=O)(=O)c3ccc4ccccc4c3)CC2)nc1 + Cc1[nH]c2ccc(F)cc2c1-c1nc2c3cccnc3c3ncccc3c2[nH]1 | 0.1
O=c1[nH]cc(F)c(=O)[nH]1 + Cc1[nH]c2ccc(F)cc2c1-c1nc2c3cccnc3c3ncccc3c2[nH]1 | 42.2

Same assay, conditions: second compound 0.0316 µM; first compound 10 µM; stronger effect = lower value

SMILES | viability, T/C [%]
C#Cc1c(F)ccc2cc(O)cc(-c3ncc4c(N5CC6CCC(C5)N6)nc(OCC56CCCN5CC(F)C6)nc4c3F)c12 (configuration not stated) + Cc1[nH]c2ccc(F)cc2c1-c1nc2c3cccnc3c3ncccc3c2[nH]1 | 118
C=CCn1c(=O)c2cnc(Nc3ccc(N4CCN(C)CC4)cc3)nc2n1-c1cccc(C(C)(C)O)n1 + Cc1[nH]c2ccc(F)cc2c1-c1nc2c3cccnc3c3ncccc3c2[nH]1 | 5.37
CC(C)(O)C1CCC(Nc2ccc3ncc(-c4cccc(C(F)(F)F)c4)n3n2)CC1 (configuration not stated) + Cc1[nH]c2ccc(F)cc2c1-c1nc2c3cccnc3c3ncccc3c2[nH]1 | 57.5
Nc1ccn(C2OC(CO)C(O)C2(F)F)c(=O)n1 (configuration not stated) + Cc1[nH]c2ccc(F)cc2c1-c1nc2c3cccnc3c3ncccc3c2[nH]1 | 3.68
O=C(NO)c1cnc(N2CCN(S(=O)(=O)c3ccc4ccccc4c3)CC2)nc1 + Cc1[nH]c2ccc(F)cc2c1-c1nc2c3cccnc3c3ncccc3c2[nH]1 | 0.14
O=c1[nH]cc(F)c(=O)[nH]1 + Cc1[nH]c2ccc(F)cc2c1-c1nc2c3cccnc3c3ncccc3c2[nH]1 | 31.4

Same assay, conditions: second compound 0.1 µM; first compound 0.000999 µM; stronger effect = lower value

SMILES | viability, T/C [%]
Cc1[nH]c2ccccc2c1CCNCc1ccc(/C=C/C(=O)NO)cc1 + Cc1[nH]c2ccc(F)cc2c1-c1nc2c3cccnc3c3ncccc3c2[nH]1 | 110

Same assay, conditions: second compound 0.1 µM; first compound 0.00316 µM; stronger effect = lower value

SMILES | viability, T/C [%]
Cc1[nH]c2ccccc2c1CCNCc1ccc(/C=C/C(=O)NO)cc1 + Cc1[nH]c2ccc(F)cc2c1-c1nc2c3cccnc3c3ncccc3c2[nH]1 | 108

Same assay, conditions: second compound 0.1 µM; first compound 0.00999 µM; stronger effect = lower value

SMILES | viability, T/C [%]
Cc1[nH]c2ccccc2c1CCNCc1ccc(/C=C/C(=O)NO)cc1 + Cc1[nH]c2ccc(F)cc2c1-c1nc2c3cccnc3c3ncccc3c2[nH]1 | 125

Same assay, conditions: second compound 0.1 µM; first compound 0.0316 µM; stronger effect = lower value

SMILES | viability, T/C [%]
C#Cc1c(F)ccc2cc(O)cc(-c3ncc4c(N5CC6CCC(C5)N6)nc(OCC56CCCN5CC(F)C6)nc4c3F)c12 (configuration not stated) + Cc1[nH]c2ccc(F)cc2c1-c1nc2c3cccnc3c3ncccc3c2[nH]1 | 97.6
C=CCn1c(=O)c2cnc(Nc3ccc(N4CCN(C)CC4)cc3)nc2n1-c1cccc(C(C)(C)O)n1 + Cc1[nH]c2ccc(F)cc2c1-c1nc2c3cccnc3c3ncccc3c2[nH]1 | 82.1
CC(C)(O)C1CCC(Nc2ccc3ncc(-c4cccc(C(F)(F)F)c4)n3n2)CC1 (configuration not stated) + Cc1[nH]c2ccc(F)cc2c1-c1nc2c3cccnc3c3ncccc3c2[nH]1 | 94.6
Cc1[nH]c2ccccc2c1CCNCc1ccc(/C=C/C(=O)NO)cc1 + Cc1[nH]c2ccc(F)cc2c1-c1nc2c3cccnc3c3ncccc3c2[nH]1 | 89.8
Nc1ccn(C2OC(CO)C(O)C2(F)F)c(=O)n1 (configuration not stated) + Cc1[nH]c2ccc(F)cc2c1-c1nc2c3cccnc3c3ncccc3c2[nH]1 | 14.1
O=C(NO)c1cnc(N2CCN(S(=O)(=O)c3ccc4ccccc4c3)CC2)nc1 + Cc1[nH]c2ccc(F)cc2c1-c1nc2c3cccnc3c3ncccc3c2[nH]1 | 101
O=c1[nH]cc(F)c(=O)[nH]1 + Cc1[nH]c2ccc(F)cc2c1-c1nc2c3cccnc3c3ncccc3c2[nH]1 | 86.8

Same assay, conditions: second compound 0.1 µM; first compound 0.0999 µM; stronger effect = lower value

SMILES | viability, T/C [%]
Cc1[nH]c2ccccc2c1CCNCc1ccc(/C=C/C(=O)NO)cc1 + Cc1[nH]c2ccc(F)cc2c1-c1nc2c3cccnc3c3ncccc3c2[nH]1 | 3.87

Same assay, conditions: second compound 0.1 µM; first compound 0.1 µM; stronger effect = lower value

SMILES | viability, T/C [%]
C#Cc1c(F)ccc2cc(O)cc(-c3ncc4c(N5CC6CCC(C5)N6)nc(OCC56CCCN5CC(F)C6)nc4c3F)c12 (configuration not stated) + Cc1[nH]c2ccc(F)cc2c1-c1nc2c3cccnc3c3ncccc3c2[nH]1 | 108
C=CCn1c(=O)c2cnc(Nc3ccc(N4CCN(C)CC4)cc3)nc2n1-c1cccc(C(C)(C)O)n1 + Cc1[nH]c2ccc(F)cc2c1-c1nc2c3cccnc3c3ncccc3c2[nH]1 | 111
CC(C)(O)C1CCC(Nc2ccc3ncc(-c4cccc(C(F)(F)F)c4)n3n2)CC1 (configuration not stated) + Cc1[nH]c2ccc(F)cc2c1-c1nc2c3cccnc3c3ncccc3c2[nH]1 | 110
Nc1ccn(C2OC(CO)C(O)C2(F)F)c(=O)n1 (configuration not stated) + Cc1[nH]c2ccc(F)cc2c1-c1nc2c3cccnc3c3ncccc3c2[nH]1 | 8.53
O=C(NO)c1cnc(N2CCN(S(=O)(=O)c3ccc4ccccc4c3)CC2)nc1 + Cc1[nH]c2ccc(F)cc2c1-c1nc2c3cccnc3c3ncccc3c2[nH]1 | 120
O=c1[nH]cc(F)c(=O)[nH]1 + Cc1[nH]c2ccc(F)cc2c1-c1nc2c3cccnc3c3ncccc3c2[nH]1 | 101

Same assay, conditions: second compound 0.1 µM; first compound 0.316 µM; stronger effect = lower value

SMILES | viability, T/C [%]
C#Cc1c(F)ccc2cc(O)cc(-c3ncc4c(N5CC6CCC(C5)N6)nc(OCC56CCCN5CC(F)C6)nc4c3F)c12 (configuration not stated) + Cc1[nH]c2ccc(F)cc2c1-c1nc2c3cccnc3c3ncccc3c2[nH]1 | 88.2
C=CCn1c(=O)c2cnc(Nc3ccc(N4CCN(C)CC4)cc3)nc2n1-c1cccc(C(C)(C)O)n1 + Cc1[nH]c2ccc(F)cc2c1-c1nc2c3cccnc3c3ncccc3c2[nH]1 | 35.2
CC(C)(O)C1CCC(Nc2ccc3ncc(-c4cccc(C(F)(F)F)c4)n3n2)CC1 (configuration not stated) + Cc1[nH]c2ccc(F)cc2c1-c1nc2c3cccnc3c3ncccc3c2[nH]1 | 104
Cc1[nH]c2ccccc2c1CCNCc1ccc(/C=C/C(=O)NO)cc1 + Cc1[nH]c2ccc(F)cc2c1-c1nc2c3cccnc3c3ncccc3c2[nH]1 | 0.11
Nc1ccn(C2OC(CO)C(O)C2(F)F)c(=O)n1 (configuration not stated) + Cc1[nH]c2ccc(F)cc2c1-c1nc2c3cccnc3c3ncccc3c2[nH]1 | 7.09
O=C(NO)c1cnc(N2CCN(S(=O)(=O)c3ccc4ccccc4c3)CC2)nc1 + Cc1[nH]c2ccc(F)cc2c1-c1nc2c3cccnc3c3ncccc3c2[nH]1 | 1.55
O=c1[nH]cc(F)c(=O)[nH]1 + Cc1[nH]c2ccc(F)cc2c1-c1nc2c3cccnc3c3ncccc3c2[nH]1 | 115

Same assay, conditions: second compound 0.1 µM; first compound 1 µM; stronger effect = lower value

SMILES | viability, T/C [%]
C#Cc1c(F)ccc2cc(O)cc(-c3ncc4c(N5CC6CCC(C5)N6)nc(OCC56CCCN5CC(F)C6)nc4c3F)c12 (configuration not stated) + Cc1[nH]c2ccc(F)cc2c1-c1nc2c3cccnc3c3ncccc3c2[nH]1 | 102
C=CCn1c(=O)c2cnc(Nc3ccc(N4CCN(C)CC4)cc3)nc2n1-c1cccc(C(C)(C)O)n1 + Cc1[nH]c2ccc(F)cc2c1-c1nc2c3cccnc3c3ncccc3c2[nH]1 | 7.33
